In brackets after ≈: the same amount, converted by molar mass. Where two headings read alike, the source gives them in different places.

What all share (assay): microbe, parasite or virus in culture
Assay [1] relates to M. abscessus S (control, untreated). Also on record: species or system Mycobacterium abscessus S; broth microdilution / checkerboard MIC in 7H9-S OADC, OD600, more than 90% growth inhibition. As to conditions: Mycobacteroides abscessus, read-out: MIC, single drug.
In assay [2] the test system is M. abscessus S reference strain (Control, untreated). The conditions noted are these: Mycobacteroides abscessus, read-out: MIC (0 µg/mL CyC, alone).
Assay [3] has the same test system. Also on record: species or system Mycobacterium abscessus; broth microdilution in 7H9-OADC, OD600 growth, MIC defined as 90% growth inhibition. As to conditions: Mycobacteroides abscessus, single drug, read-out: MIC (0 µg/mL CyC, alone).

For the compound `CC[C@H]1OC(=O)[C@H](C)[C@@H](O[C@H]2C[C@@](C)(OC)[C@@H](O)[C@H](C)O2)[C@H](C)[C@@H](O[C@@H]2O[C@H](C)C[C@H](N(C)C)[C@H]2O)[C@](C)(O)C[C@@H](C)CN(C)[C@H](C)[C@@H](O)[C@]1(C)O` [AZM, azithromycin], the MIC in assay [1] came out at 6 µg/mL.
The same measure, in the same setting: under `CC[C@H]1OC(=O)[C@H](C)[C@@H](O[C@H]2C[C@@](C)(OC)[C@@H](O)[C@H](C)O2)[C@H](C)[C@@H](O[C@@H]2O[C@H](C)C[C@H](N(C)C)[C@H]2O)[C@](C)(OC)C[C@@H](C)C(=O)[C@H](C)[C@@H](O)[C@]1(C)O` [CLR, clarithromycin] stands 0.6 µg/mL.
As for `CCCCCCCCCCCCCCCCOP1(=O)OCCC(C(=O)OC)=C(C)O1` (stereo not shown) [CyC17], in assay [2], the MIC is 3.2 µg/mL (≈ 7.17 µM).
Take `CCCCCCCCCCCOP1(=O)OCCC(C(=O)OC)=C(C)O1` (stereo not shown) [CyC31]: in assay [3], the MIC was found to be 20 µg/mL (≈ 53.1 µM).
